Values quoted from earlier work as cited in patent US5607940A (priority 1994, dated 1997).

Experiments:
[1] = silver anode; listed as MHCl, hydrochloride
[2] = in vivo

| Compound | utilization of morphine [1] | time to clinically effective blood levels [2] [min] |
| --- | --- | --- |
| CN1CC[C@]23c4c5ccc(O)c4O[C@H]2[C@@H](O)C=C[C@H]3[C@H]1C5.Cl [morphine hydrochloride] | about 10% | – |
| CN1CC[C@]23c4c5ccc(O)c4O[C@H]2[C@@H](O)C=C[C@H]3[C@H]1C5 [morphine] | – | 15 to 20 |
